pKi: −log10 of the molar value.
What follows are compounds tested against Amyloid-beta precursor protein (Homo sapiens, UniProt P05067) (assay: Binding affinity to human beta amyloid plaque in alzheimer's disease patient brain).
Chain of Amyloid-beta precursor protein (P05067 whole entry): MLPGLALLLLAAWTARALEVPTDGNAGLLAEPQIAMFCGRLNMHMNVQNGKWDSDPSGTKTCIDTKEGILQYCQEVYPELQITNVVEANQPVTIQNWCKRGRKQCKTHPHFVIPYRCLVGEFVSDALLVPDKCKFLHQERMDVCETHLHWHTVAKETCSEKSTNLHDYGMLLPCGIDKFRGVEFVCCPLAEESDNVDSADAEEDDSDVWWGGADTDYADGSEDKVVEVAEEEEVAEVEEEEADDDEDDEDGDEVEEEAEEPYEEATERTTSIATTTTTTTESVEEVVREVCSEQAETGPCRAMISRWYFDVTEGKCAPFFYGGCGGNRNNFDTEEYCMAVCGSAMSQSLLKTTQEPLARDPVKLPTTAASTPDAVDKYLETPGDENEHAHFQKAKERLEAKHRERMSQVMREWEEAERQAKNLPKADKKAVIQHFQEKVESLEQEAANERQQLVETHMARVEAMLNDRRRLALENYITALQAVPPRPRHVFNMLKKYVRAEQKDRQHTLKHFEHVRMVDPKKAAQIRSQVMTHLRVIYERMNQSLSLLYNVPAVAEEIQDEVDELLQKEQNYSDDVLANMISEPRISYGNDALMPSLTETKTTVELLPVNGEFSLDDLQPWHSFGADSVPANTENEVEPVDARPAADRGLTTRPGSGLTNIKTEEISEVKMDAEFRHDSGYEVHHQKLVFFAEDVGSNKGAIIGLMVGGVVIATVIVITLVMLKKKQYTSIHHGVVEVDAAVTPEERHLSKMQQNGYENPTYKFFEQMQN

Row | pKi | SMILES
1 | < 6.00 | CNc1ccc(-c2cn3cc(SCC(N)=O)ccc3n2)cc1C
2 | < 6.00 | CN(C(=O)C(F)(F)F)c1ccc(-c2cn3cc(Br)ccc3n2)cc1Br
3 | 6.74 | CN(C)c1ccc(-c2cn3cc(Br)cc(I)c3n2)cc1
4 | < 6.00 | Cc1cc(-c2cn3cc(Br)ccc3n2)ccc1NC(=O)C(F)(F)F
5 | < 6.00 | CC(=O)N(C)c1ccc(-c2cn3cc(Br)ccc3n2)cc1C
6 | < 6.00 | CNc1ccc(-c2cn3cc(SCCO)ccc3n2)cc1C
7 | < 6.74 | CN(C)c1ccc(-c2cn3cc(Br)cc(C#N)c3n2)cc1
8 | < 6.00 | CNc1ccc(-c2cn3cc(Br)ccc3n2)cc1C
